The target of assay [1] is T1, mGluR5 receptor (pig) (Sus scrofa, UniProt I3LUI7).
T1 construct: 450 μg protein from brain homogenate is incubated with 5 nM ^3[H]-MPEP; from tissue; host or cells: pig brain halves without medulla, cerebellum and pons
Nature of the assay: [3H]-MPEP bond in the mGluR5 receptor bond assay (pig brain homogenate). Format: binding. Conditions: 5 nM [3H]-MPEP; pig brain homogenate. As to the method:
I. Method for Determining the Inhibition of the [^3H]-MPEP Bond in the mGluR5 Receptor Bond Assay
Pig brain homogenate is produced by homogenisation (Polytron PT 3000, Kinematica AG, 10,000 rpm for 90 seconds) of pig brain halves without medulla, cerebellum and pons in buffer pH 8.0 (30 mM Hepes, Sigma, order no. H3375+1 tablet complete to 100 ml, Roche Diagnostics, order no. 1836145) in the ratio 1:20 (brain weight/volume) and differential centrifugation at 900×g and 40,000×g. In each case, 450 μg protein from brain homogenate is incubated with 5 nM ^3[H]-MPEP (Tocris, order no. […]
Thereafter, the batches are filtered with the help of a Brandel Cell Harvester (Brandel, TYP Robotic 9600) on unifilter plates with glass fibre filter mats (Perkin Elmer, order no. 6005177) and subsequently washed with buffer (as above) 3 times with in each case 250 μl per sample. The filter plates are subsequently dried for 60 min at 55° C. 30 μL Ultima Gold™ scintillator (Packard BioScience, order no. 6013159) is subsequently added per well and the samples are measured after 3 hours on the β-counter (Mikrobeta, Perkin Elmer). The unspecific bond is determined by addition of 10 μM MPEP (Tocris, order no. 1212).

Assay [2] concerns rats. The assay can be described thus: Formaline test in rats (phase 2, pain rate). Type of assay: in vivo, rat. As to conditions: i.v. administration at 21.5 mg/kg, formaline test phase 2. The procedure: III. Formaline Test in Rats:
The formaline test (Dubuisson, D. and Dennis, S. G., 1977, Pain, 4, 161-174) represents a model for acute and chronic pain. A biphasic nociceptive reaction, which is recorded by observation of three clearly differentiable behavioural patterns, is induced by a single formaline injection into the dorsal side of a rear paw in freely mobile test animals. The reaction has two phases: Phase 1=Immediate reaction (duration up to 10 min; paw shaking, licking), Phase 2=Late reaction (after a rest phase; likewise, paw shaking, licking; duration up to 60 min). The 1st phase reflects a direct stimulation of the peripheral nocisensors with high spinal nociceptive input or glutamate release (acute pain phase); the 2nd phase reflects a spinal and peripheral hypersensitisation (chronic pain phase). In the investigations presented here, the chronic pain component (phase 2) was evaluated.
Formaline with a volume of 50 μl and a concentration of 5% is administered subcutaneously into the dorsal side of the right rear paw of each animal. […] The calculation of PR is performed on the basis of a numerical weighting (=in each case factor 1, 2, 3) of the observed forms of behaviour (corresponding behavioural score 1, 2, 3) and is calculated with the following formula: […]

T1 sequence (I3LUI7 19-1212): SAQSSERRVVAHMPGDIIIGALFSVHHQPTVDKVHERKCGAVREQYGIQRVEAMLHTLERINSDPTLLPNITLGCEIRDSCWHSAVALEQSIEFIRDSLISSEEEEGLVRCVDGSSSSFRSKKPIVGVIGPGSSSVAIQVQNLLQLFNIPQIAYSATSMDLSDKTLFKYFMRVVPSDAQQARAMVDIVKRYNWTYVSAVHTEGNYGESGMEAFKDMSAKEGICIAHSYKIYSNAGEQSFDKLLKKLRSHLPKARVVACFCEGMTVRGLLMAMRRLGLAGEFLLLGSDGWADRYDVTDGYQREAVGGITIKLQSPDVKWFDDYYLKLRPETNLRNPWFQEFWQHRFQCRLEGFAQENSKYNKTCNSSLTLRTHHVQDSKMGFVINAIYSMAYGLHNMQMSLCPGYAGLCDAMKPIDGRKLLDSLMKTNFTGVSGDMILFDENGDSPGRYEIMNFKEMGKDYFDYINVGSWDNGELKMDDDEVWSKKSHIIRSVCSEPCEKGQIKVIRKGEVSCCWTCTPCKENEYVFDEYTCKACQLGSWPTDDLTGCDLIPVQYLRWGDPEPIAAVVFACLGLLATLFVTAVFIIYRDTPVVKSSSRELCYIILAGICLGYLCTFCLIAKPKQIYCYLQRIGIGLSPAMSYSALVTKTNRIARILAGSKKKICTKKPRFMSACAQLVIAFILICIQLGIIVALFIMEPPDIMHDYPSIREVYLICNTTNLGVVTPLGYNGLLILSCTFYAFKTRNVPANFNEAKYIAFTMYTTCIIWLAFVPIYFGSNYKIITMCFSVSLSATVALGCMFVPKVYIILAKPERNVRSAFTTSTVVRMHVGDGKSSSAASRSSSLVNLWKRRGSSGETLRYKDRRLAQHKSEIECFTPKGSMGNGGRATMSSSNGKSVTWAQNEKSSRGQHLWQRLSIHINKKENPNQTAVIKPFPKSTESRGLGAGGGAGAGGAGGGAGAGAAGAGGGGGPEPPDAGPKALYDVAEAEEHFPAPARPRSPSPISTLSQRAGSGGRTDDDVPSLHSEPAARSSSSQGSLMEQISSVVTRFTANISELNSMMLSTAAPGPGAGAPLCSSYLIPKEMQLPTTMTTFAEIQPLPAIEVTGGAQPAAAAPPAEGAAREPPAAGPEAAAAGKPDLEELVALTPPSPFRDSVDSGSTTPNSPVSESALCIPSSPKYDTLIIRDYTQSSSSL

By IC50 is commonly meant the point on the concentration scale where inhibition reaches its midpoint. A higher IC50 goes with a need for much substance. In the case of `CN(CCc1ccccc1)C(=O)C#Cc1cccc(Cl)c1` [Example 1, 3-(3-chlorophenyl)-N-methyl-N-phenethylpropiolamide], in assay [1], inhibition was half-maximal at 0.012 µM (IC50). Besides, the “inhibition of the pain reaction” value in assay [2] turned out to be 60%. Consider `CC(C)N(CCc1ccccc1)C(=O)C#Cc1cccc(Cl)c1` [Example 238, 3-(3-chlorophenyl)-N-isopropyl-N-phenethylpropiolamide], for which, in assay [1], inhibition was half-maximal at 0.07 µM (IC50). `O=C(C#Cc1cccc(Cl)c1)N(CCc1ccccc1)C1CC1` [Example 239, 3-(3-chlorophenyl)-N-cyclopropyl-N-phenethylpropiolamide]: in assay [1], the IC50 was found to be 0.28 µM. On the same count and under the same terms, in the case of `COc1ccccc1CCN(C)C(=O)C#Cc1cccc(Cl)c1` [Example 240, 3-(3-chlorophenyl)-N-(2-methoxyphenethyl)-N-methylpropiolamide] it was 0.012 µM. The same measure, in the same setting: with `CC(Cc1ccccc1)N(C)C(=O)C#Cc1cccc(Cl)c1` (stereo not shown) [Example 241, 3-(3-chlorophenyl)-N-methyl-N-(1-phenylpropane-2-yl)propiolamide] the figure was 0.013 µM; with `CC(Cc1ccccc1)NC(=O)C#Cc1cccc(Cl)c1` (stereo not shown) [Example 242, 3-(3-chlorophenyl)-N-(1-phenylpropane-2-yl)propiolamide], 0.002 µM. Still for that read-out and setting: in the case of `CN(CCc1cccnc1)C(=O)C#Cc1cccc(Cl)c1` [Example 243, 3-(3-chlorophenyl)-N-methyl-N-(2-(pyridine-3-yl)ethyl)propiolamide] it was 0.012 µM; in that of `CN(CCc1ccncc1)C(=O)C#Cc1cccc(Cl)c1` [Example 244, 3-(3-chlorophenyl)-N-methyl-N-(2-(pyridine-4-yl)ethyl)propiolamide], 0.023 µM. As to `CN(CCc1cccs1)C(=O)C#Cc1cccc(Cl)c1` [Example 245, 3-(3-chlorophenyl)-N-methyl-N-(2-(thiophene-2-yl)ethyl)propiolamide], in assay [1], the IC50 was 0.011 µM.

`CC(Cc1cccnc1)NC(=O)C#Cc1cccc(Cl)c1` (stereo not shown) [Example 246, 3-(3-chlorophenyl)-N-(1-(pyridine-3-yl)propane-2-yl)propiolamide] came in with an IC50 in assay [1] of 0.01 µM. Same read-out and setting: in the case of `CC(Cc1cccnc1)N(C)C(=O)C#Cc1cccc(Cl)c1` (stereo not shown) [Example 247, 3-(3-chlorophenyl)-N-methyl-N-(1-(pyridine-3-yl)propane-2-yl)propiolamide] it was 0.14 µM; in that of `Cc1ncccc1CCNC(=O)C#Cc1cccc(Cl)c1` [Example 248, 3-(3-chlorophenyl)-N-(2-(2-methylpyridine-3-yl)ethyl)propiolamide], 0.26 µM; in that of `Cc1ncccc1CCN(C)C(=O)C#Cc1cccc(Cl)c1` [Example 249, 3-(3-chlorophenyl)-N-methyl-N-(2-(2-methylpyridine-3-yl)ethyl)propiolamide], 0.12 µM. On the same count and under the same terms, with `O=C(C#Cc1cccc(Cl)c1)NCCc1ccccc1C(F)(F)F` [Example 250, 3-(3-chlorophenyl)-N-(2-(trifluoromethyl)phenethyl)propiolamide] the figure was 0.033 µM; with `CN(CCc1ccccc1C(F)(F)F)C(=O)C#Cc1cccc(Cl)c1` [Example 251, 3-(3-chlorophenyl)-N-methyl-N-(2-(trifluormethyl)phenethyl)propiolamide], 0.028 µM.

The values are drawn from patent US20090182020A1, “SUBSTITUTED BIS(HETERO)AROMATIC N--ETHYLPROPIOLAMIDES AND USE THEREOF FOR PRODUCTION OF MEDICAMENTS” (GRUNENTHAL GMBH, priority 2005, published 2009).
